Activity calls are given as the source filed them. The rule behind the calls is not given here.
Columns and labels:
[1] = target: T1, Adenosine receptor A1 (Homo sapiens) (UniProt P30542); test: Activity measured by decrease in cAMP content employing CHO cells expressing human A1 receptor at 10 uM; assay type: functional, cell-based; parameters: scale not given: the % may be the effect or the level left
T1 sequence (whole entry): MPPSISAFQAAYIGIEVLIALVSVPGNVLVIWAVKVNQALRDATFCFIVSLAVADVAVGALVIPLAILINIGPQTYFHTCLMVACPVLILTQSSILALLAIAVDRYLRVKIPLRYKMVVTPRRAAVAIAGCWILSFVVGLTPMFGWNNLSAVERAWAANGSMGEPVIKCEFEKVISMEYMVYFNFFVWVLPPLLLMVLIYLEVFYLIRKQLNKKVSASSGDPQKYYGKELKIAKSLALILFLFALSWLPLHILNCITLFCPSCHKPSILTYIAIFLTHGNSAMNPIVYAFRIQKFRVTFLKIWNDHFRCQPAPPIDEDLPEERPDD

[2] = target: T1, Adenosine receptor A1 (Homo sapiens); test: Increase in agonist-specific binding of [3H]CCPA to human adenosine A1 receptor in CHO membranes; assay type: functional, cell membranes
[3] = target: T2, Adenosine receptor A1 (Rattus norvegicus) (UniProt P25099); test: Increase in agonist-specific binding of [3H]CCPA to adenosine A1 receptor in rat cortex; assay type: functional
T2 sequence (whole entry): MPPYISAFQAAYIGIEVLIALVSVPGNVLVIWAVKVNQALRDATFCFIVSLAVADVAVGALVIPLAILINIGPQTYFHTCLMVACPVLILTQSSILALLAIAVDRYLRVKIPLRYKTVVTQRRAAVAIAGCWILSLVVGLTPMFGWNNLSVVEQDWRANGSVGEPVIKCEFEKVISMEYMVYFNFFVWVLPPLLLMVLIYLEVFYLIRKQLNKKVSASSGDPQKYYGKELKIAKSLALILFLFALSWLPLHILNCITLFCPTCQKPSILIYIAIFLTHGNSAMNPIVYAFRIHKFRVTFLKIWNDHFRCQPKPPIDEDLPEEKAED

[4] = target: T1, Adenosine receptor A1 (Homo sapiens); test: Increase in agonist-specific binding of [3H]CCPA to human adenosine A1 receptor in human brain membranes; assay type: functional, cell membranes; settings: Membrane
[5] = target: T1, Adenosine receptor A1 (Homo sapiens); test: Increase in Bmax for binding of [3H]CCPA to human adenosine A1 receptor in CHO membranes; assay type: cell membranes
[6] = target: T2, Adenosine receptor A1 (Rattus norvegicus); test: Increase in Bmax for binding of [3H]CCPA to adenosine A1 receptor in rat cortex
[7] = target: T1, Adenosine receptor A1 (Homo sapiens); test: Increase in Bmax for binding of [3H]CCPA to human adenosine A1 receptor in human brain membrane; assay type: cell membranes
[8] = target: Adenosine receptor A2a (Homo sapiens) (UniProt P29274); test: Increase in binding of [3H]CGS 21680 to human adenosine A2A receptor in CHO membranes; assay type: cell membranes
Chain of Adenosine receptor A2a (Homo sapiens) (P29274 whole entry): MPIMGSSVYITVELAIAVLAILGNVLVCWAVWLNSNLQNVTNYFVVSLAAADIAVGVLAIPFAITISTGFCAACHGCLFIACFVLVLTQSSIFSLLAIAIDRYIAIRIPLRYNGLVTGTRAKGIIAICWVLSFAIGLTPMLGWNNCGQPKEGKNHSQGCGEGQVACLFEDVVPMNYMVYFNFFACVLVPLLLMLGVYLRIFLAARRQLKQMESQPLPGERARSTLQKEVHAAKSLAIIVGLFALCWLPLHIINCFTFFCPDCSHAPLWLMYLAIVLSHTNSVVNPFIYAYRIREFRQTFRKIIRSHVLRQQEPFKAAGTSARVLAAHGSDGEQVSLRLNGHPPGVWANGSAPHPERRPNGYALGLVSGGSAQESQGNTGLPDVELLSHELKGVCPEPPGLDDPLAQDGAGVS

[9] = target: T3, Adenosine receptor A3 (Homo sapiens) (UniProt P0DMS8); test: Increase in binding of [125I]AB-MECA to human adenosine A3 receptor in CHO membranes; assay type: cell membranes
T3 sequence (whole entry): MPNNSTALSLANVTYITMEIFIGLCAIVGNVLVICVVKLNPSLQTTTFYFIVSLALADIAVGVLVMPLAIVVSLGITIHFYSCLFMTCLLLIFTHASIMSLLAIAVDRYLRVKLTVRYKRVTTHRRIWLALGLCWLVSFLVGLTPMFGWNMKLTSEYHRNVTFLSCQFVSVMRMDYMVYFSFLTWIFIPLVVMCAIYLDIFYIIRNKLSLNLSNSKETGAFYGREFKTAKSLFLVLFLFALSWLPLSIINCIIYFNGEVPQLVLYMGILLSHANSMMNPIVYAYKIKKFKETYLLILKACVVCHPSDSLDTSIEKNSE

[10] = target: T1, Adenosine receptor A1 (Homo sapiens); test: Binding density to adenosine A1 receptor in CHO membranes; assay type: cell membranes; settings: tested as the 3H-labelled form

SMILES: Nc1sc2c(c1C(=O)c1ccc(Cl)cc1)CCCC2
- Activity [1]: 55%
- Activity [2]: 51%
- Activity [3]: 15%
- Activity [4]: 22%
- Activity [5]: 65%
- Activity [6]: 15%
- Activity [7]: 23%
- Activity [8]: inactive
- Activity [9]: inactive
- Bmax [10]: 76.5 pmol/mg

— ChEMBL document CHEMBL1139647, “Synthesis and biological characterization of [3H] (2-amino-4,5,6,7-tetrahydrobenzo[b]thiophen-3-yl)-(4-chlorophenyl)-methanone, the first radiolabelled adenosine A1 allosteric enhancer” (Bioorg Med Chem Lett, 2006)
